Measured values published in the supplement of paper PMC10307832.

Assays:
Test in all cases: relative viability (nuclei count vs DMSO), 5 days (fraction); higher = more cells survive
[1] = compound: C[C@@H](N)c1ccc(C(=O)Nc2ccnc3[nH]ccc23)cc1 + CC1(C)CCC(c2ccc(Cl)cc2)=C(CN2CCN(c3ccc(C(=O)NS(=O)(=O)c4ccc(N[C@H](CCN5CCOCC5)CSc5ccccc5)c(S(=O)(=O)C(F)(F)F)c4)cc3)CC2)C1 [Navitoclax] (partner 0.5 µM)
Outline: (§1)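 One day after seeding in 1536-well plates, lung cancer cell lines were dosed by pin tool. Dosing was either single-drug or a fixed anchor-drug dose plus five library-drug doses (not always all listed) in √10 steps. After 5 days, nuclei were stained in one fix-and-stain step and counted on 4× images, and relative viability is the nuclei count of treated wells over that of vehicle wells, given as the median of duplicate plates.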

Tanzisertib + Lapatinib = compound: O[C@H]1CC[C@H](Nc2ncc3nc(Nc4c(F)cc(F)cc4F)n([C@H]4CCOC4)c3n2)CC1 [Tanzisertib] + CS(=O)(=O)CCNCc1ccc(-c2ccc3ncnc(Nc4ccc(OCc5cccc(F)c5)c(Cl)c4)c3c2)o1 [Lapatinib] (partner 2 µM)
Outline: as §1

[2] = compound: O[C@H]1CC[C@H](Nc2ncc3nc(Nc4c(F)cc(F)cc4F)n([C@H]4CCOC4)c3n2)CC1 [Tanzisertib] + CC(=O)c1c(C)c2cnc(Nc3ccc(N4CCNCC4)cn3)nc2n(C2CCCC2)c1=O [Palbociclib] (partner 0.5 µM)
Outline: as §1

Tanzisertib + Luminespib = compound: O[C@H]1CC[C@H](Nc2ncc3nc(Nc4c(F)cc(F)cc4F)n([C@H]4CCOC4)c3n2)CC1 [Tanzisertib] + CCNC(=O)c1noc(-c2cc(C(C)C)c(O)cc2O)c1-c1ccc(CN2CCOCC2)cc1 [Luminespib] (partner 0.01 µM)
Outline: as §1

Cell Line	relative viability ([1]; first compound 0.04 µM)	relative viability ([1]; first compound 0.1265 µM)	relative viability ([1]; first compound 0.4 µM)	relative viability ([1]; first compound 1.265 µM)	relative viability ([1]; first compound 4 µM)	relative viability (Tanzisertib + Lapatinib; first compound 0.08 µM)	relative viability (Tanzisertib + Lapatinib; first compound 0.253 µM)	relative viability (Tanzisertib + Lapatinib; first compound 0.8 µM)	relative viability (Tanzisertib + Lapatinib; first compound 2.53 µM)	relative viability (Tanzisertib + Lapatinib; first compound 8 µM)	relative viability ([2]; first compound 0.08 µM)	relative viability ([2]; first compound 0.253 µM)	relative viability ([2]; first compound 0.8 µM)	relative viability ([2]; first compound 2.53 µM)	relative viability ([2]; first compound 8 µM)	relative viability (Tanzisertib + Luminespib; first compound 0.08 µM)	relative viability (Tanzisertib + Luminespib; first compound 0.253 µM)	relative viability (Tanzisertib + Luminespib; first compound 0.8 µM)	relative viability (Tanzisertib + Luminespib; first compound 2.53 µM)	relative viability (Tanzisertib + Luminespib; first compound 8 µM)
201T	1.15	1.1	1.16	1.2	1.37	1.04	1.02	0.997	1.02	1.07	0.369	0.375	0.35	0.342	0.334	1.09	1.06	1.06	1.03	1.05
A549	1.23	1.31	1.18	1.21	0.714	1.04	0.92	0.921	1.05	1.07	–	–	–	–	–	–	–	–	–	–
A-427	1.02	0.992	0.993	–	0.855	1.19	1.18	1.04	1.04	1.12	0.565	0.538	0.52	0.507	0.511	0.941	0.893	0.942	0.972	1.07
ABC-1	–	–	–	–	–	1.17	1	–	1.36	1.41	0.927	0.597	0.946	0.818	0.824	0.777	0.428	0.518	0.735	0.944
BEN	0.0518	0.0703	0.0684	0.0653	0.122	0.773	0.806	0.721	0.795	0.712	0.448	0.532	0.502	0.492	0.509	0.352	0.77	0.814	0.382	0.209
CAL-12T	1.3	1.33	1.48	1.77	1.47	0.635	0.617	0.795	0.762	0.72	0.486	0.447	0.539	0.422	0.279	0.383	0.409	0.376	0.731	0.247
COR-L23	1.03	1.16	0.886	0.766	0.481	1.12	0.954	0.961	1.07	0.98	0.325	0.331	0.336	0.275	0.298	0.588	0.579	0.669	0.706	0.639
COR-L 105	0.795	0.74	0.783	0.769	0.519	0.379	0.355	0.353	0.332	0.275	0.411	0.4	0.407	0.417	0.39	0.795	0.754	0.651	0.986	0.69
Calu-6	0.849	1.02	0.855	0.836	0.678	1.14	1.11	1.07	1.05	1	–	–	–	–	–	–	–	–	–	–
ChaGo-K-1	1.07	1.01	1.19	–	0.891	–	–	–	–	–	0.977	0.927	0.91	0.889	0.903	0.573	0.406	0.552	0.589	0.648
EBC-1	0.414	0.406	0.379	0.377	0.347	0.216	0.213	0.204	0.189	0.178	–	–	–	–	–	–	–	–	–	–
EKVX	0.914	1.15	1.32	1.07	0.807	0.161	0.186	0.208	0.394	0.197	0.455	0.388	0.363	0.414	0.355	0.974	0.882	0.801	0.833	0.825
EMC-BAC-2	1.28	1.18	1.21	1.4	0.977	1.03	0.923	0.931	0.867	0.841	0.537	0.513	0.463	0.509	0.495	1.24	1.07	1.23	1.16	1.14
EPLC-272H	1.14	1.26	1.26	–	0.975	0.929	1.06	0.955	1.22	1.03	0.374	0.316	0.326	0.306	0.287	0.251	0.206	0.519	0.921	0.408
H3255	0.554	0.846	0.769	0.575	0.45	0.231	0.29	0.256	0.256	0.205	0.297	0.301	0.327	0.336	0.31	0.818	0.929	1.02	0.846	0.773
HARA	1.14	1.2	1.19	1.27	0.889	0.889	0.809	0.81	0.797	0.771	0.247	0.313	0.257	0.193	0.267	0.856	0.907	1.06	0.79	0.686
HCC-15	0.712	0.689	0.738	–	0.645	0.974	0.854	0.888	0.916	0.659	0.794	0.73	0.737	0.752	0.713	0.504	0.193	0.357	0.406	0.453
HCC-44	0.979	0.99	1.15	0.946	0.698	1.07	1.16	1.12	1.1	1.25	1.02	1.03	0.94	0.955	1.1	1.14	1.12	1.09	1.07	1.13
HCC-78	1.08	0.79	1.2	1.11	0.782	0.72	0.7	0.827	0.786	0.303	0.405	0.474	0.488	0.514	0.472	–	–	–	–	–
HCC-366	1.04	1.15	1.16	–	0.923	0.985	1.06	1.1	1.07	1.03	–	0.395	0.424	0.368	0.384	–	–	–	–	–
HCC-827	0.872	0.993	0.971	1.05	0.843	0.19	0.186	0.201	0.24	0.183	0.533	0.468	0.475	0.429	0.24	0.668	0.594	0.642	0.588	0.259

Cell Line	relative viability ([1]; first compound 0.04 µM)	relative viability ([1]; first compound 0.1265 µM)	relative viability ([1]; first compound 0.4 µM)	relative viability ([1]; first compound 1.265 µM)	relative viability ([1]; first compound 4 µM)	relative viability (Tanzisertib + Lapatinib; first compound 0.08 µM)	relative viability (Tanzisertib + Lapatinib; first compound 0.253 µM)	relative viability (Tanzisertib + Lapatinib; first compound 0.8 µM)	relative viability (Tanzisertib + Lapatinib; first compound 2.53 µM)	relative viability (Tanzisertib + Lapatinib; first compound 8 µM)	relative viability ([2]; first compound 0.08 µM)	relative viability ([2]; first compound 0.253 µM)	relative viability ([2]; first compound 0.8 µM)	relative viability ([2]; first compound 2.53 µM)	relative viability ([2]; first compound 8 µM)	relative viability (Tanzisertib + Luminespib; first compound 0.08 µM)	relative viability (Tanzisertib + Luminespib; first compound 0.253 µM)	relative viability (Tanzisertib + Luminespib; first compound 0.8 µM)	relative viability (Tanzisertib + Luminespib; first compound 2.53 µM)	relative viability (Tanzisertib + Luminespib; first compound 8 µM)
HOP-62	1.08	0.959	1.06	–	0.85	1.25	0.85	1.06	1.12	0.511	0.411	0.451	0.464	0.491	0.525	0.966	0.924	0.886	0.91	0.883
IA-LM	0.799	0.93	0.929	1.03	0.989	0.855	0.732	–	1.03	1.03	–	–	–	–	–	–	–	–	–	–
LC-2-ad	0.398	0.566	0.585	0.346	0.262	0.991	0.978	1.1	0.989	0.868	0.484	0.548	0.471	0.441	0.502	1.15	1.04	1.03	1.07	1.05
LCLC-97TM1	0.405	0.507	0.44	0.786	0.836	–	0.92	0.696	0.568	0.863	0.222	0.243	0.215	0.204	0.229	0.956	0.669	0.803	0.824	0.788
LCLC-103H	–	–	–	–	–	–	–	–	–	–	0.519	0.466	0.486	0.456	0.465	1	0.888	0.941	1.05	1.12
LK-2	0.976	1.18	0.927	0.82	0.762	1.1	0.895	1.12	0.996	0.977	0.526	0.618	0.798	0.659	0.749	0.224	0.187	0.191	0.192	0.181
LOU-NH91	0.61	0.679	0.602	0.615	0.615	0.782	0.775	0.64	0.771	0.716	0.584	0.558	0.532	0.556	0.414	0.431	0.345	0.371	0.33	0.349
NCI-H358	–	–	–	–	–	0.536	0.474	0.413	0.436	0.321	0.129	0.134	0.127	0.127	0.148	0.302	0.282	0.5	0.29	0.318
NCI-H441	0.571	0.546	0.477	0.624	0.571	–	–	–	–	–	0.236	0.224	0.241	0.194	0.154	0.312	0.338	0.29	0.279	0.314
NCI-H522	–	–	–	–	–	–	–	–	–	–	1.05	0.984	0.959	1.13	0.899	1.38	1.27	0.966	1.16	1.17
NCI-H596	1.01	1.2	0.96	1.06	0.955	1.18	1.15	1.04	1.09	0.985	–	–	–	–	–	1.1	1.16	1.22	0.96	0.892
NCI-H650	–	–	–	–	–	0.963	1.14	1.02	1.06	0.295	0.341	0.342	0.302	0.33	0.325	0.725	0.915	0.884	0.936	0.855
NCI-H661	–	–	–	–	–	0.596	0.431	0.505	0.511	0.449	0.424	0.406	0.423	0.386	0.415	0.903	0.943	0.902	0.952	0.955
NCI-H1299	1.06	0.988	0.983	0.973	0.932	1.01	0.982	0.989	1.05	1.11	–	–	–	–	–	–	–	–	–	–
NCI-H1563	–	–	–	–	–	0.973	0.947	0.967	1.06	1.01	–	–	–	–	–	0.485	0.498	0.524	0.484	0.446
NCI-H1623	–	–	–	–	–	–	–	–	–	–	–	–	–	–	–	0.617	0.443	0.484	0.502	0.624
NCI-H1648	–	–	–	–	–	–	–	–	–	–	0.228	0.267	0.212	0.229	0.251	–	–	–	–	–
NCI-H1703	1.28	1.11	1.06	–	0.616	1.29	1.08	1.09	1.11	0.942	–	–	–	–	–	–	–	–	–	–
NCI-H2342	–	–	–	–	–	–	–	–	–	–	0.539	0.542	0.52	0.497	0.582	0.688	0.828	0.975	0.759	0.888
SW 900	–	–	–	–	–	–	–	–	–	–	–	0.522	0.557	0.56	0.454	0.169	0.188	0.151	0.207	0.168
